A word on the IC50: it is the point on the concentration scale where inhibition reaches its midpoint. A high value points to weaker potency.

Assay [1] addresses Inositol 1,4,5-trisphosphate receptor (Homo sapiens, UniProt Q14571+Q14573+Q14643). The assay is described as follows: Binding affinity against Ins(4,5)P2 receptor prepared from purified guinea pig hepatocytes. Set-up: species or system Cavia porcellus. The note with it: hepatocyte.
Assay [2] is described as follows: Binding affinity against Ins(4,5,6)P3 receptor prepared from purified rat brain cerebellum. In kind it is tissue-based.
The nature of assay [3]: Binding affinity against Ins(1,4,5)P3 receptor prepared from purified rat brain cerebellum. In kind it is tissue-based.

Compound `O=P(O)(O)O[C@@H]1[C@@H](O)[C@H](O)[C@H](O)[C@H](O)[C@H]1OP(=O)(O)O` registered an IC50 in assay [1] of 50 µM.

Consider `O=P(O)(O)O[C@H]1[C@H](OP(=O)(O)O)[C@@H](O)[C@@H](O)[C@@H](O)[C@@H]1OP(=O)(O)O`, for which the IC50 in assay [2] was determined as 9.3 µM.

Consider `O=P(O)(O)O[C@@H]1[C@H](O)[C@H](O)[C@@H](OP(=O)(O)O)[C@H](OP(=O)(O)O)[C@H]1O` [INS(1,4,5)P3], for which, in assay [3], the IC50 stood at 0.01 µM.

Source of the values: ChEMBL document CHEMBL1128162, “Synthesis and binding properties of myo-inositol 4,5,6-tris(phosphate) an analogue of myo-inositol 1,4,5-tris(phosphate). Correlation with the ionization state of the molecules” (Bioorg Med Chem Lett, 1995).
